# Assay: In vitro inhibition of Hematopoietic protein-tyrosine phosphatase using p-nitrophenyl phosphate as substrate.
row,Compound,IC50 [µM]
1,COC(=O)CNC(=O)C(NC(=O)c1ccc(/C=C/C(=O)O)cc1)c1ccccc1 (stereo not drawn),20.2
2,O=C(O)/C=C/c1ccc(C(=O)NC(C(=O)NCC(=O)O)c2ccccc2)cc1 (stereo not drawn),10.4
3,CCCCCCC(NC(=O)c1ccc(/C=C/C(=O)O)cc1)C(=O)NCc1ccccc1 (stereo not drawn),6
4,O=C(O)/C=C/c1ccc(C(=O)NC(C(=O)NCc2ccccc2)c2ccccc2)cc1 (stereo not drawn),3.9
5,CCCCNC(=O)C(NC(=O)c1ccc(/C=C/C(=O)O)cc1)c1ccccc1 (stereo not drawn),6.7
6,CCCCCCC(NC(=O)c1ccc(/C=C/C(=O)O)cc1)C(=O)NCCCC (stereo not drawn),9
7,CC(C)(C)NC(=O)C(NC(=O)c1ccc(/C=C/C(=O)O)cc1)c1ccccc1 (stereo not drawn),4
8,O=C(O)/C=C/c1ccc(C(=O)NC(C(=O)NC2CCCCC2)c2ccccc2)cc1 (stereo not drawn),6.2
9,CCCCCCC(NC(=O)c1ccc(/C=C/C(=O)O)cc1)C(=O)NCC(=O)OC (stereo not drawn),7.2
10,CCCC(NC(=O)c1ccc(/C=C/C(=O)O)cc1)C(=O)NCc1ccccc1 (stereo not drawn),6.1
11,CCCCCCC(NC(=O)c1ccc(/C=C/C(=O)O)cc1)C(=O)NC(C)(C)C (stereo not drawn),7.5
12,CCCCCCC(NC(=O)c1ccc(/C=C/C(=O)O)cc1)C(=O)NCC(=O)OCC (stereo not drawn),10
13,CCOC(=O)CNC(=O)C(NC(=O)c1ccc(/C=C/C(=O)O)cc1)c1ccccc1 (stereo not drawn),9.6
14,CCCCCCC(NC(=O)c1ccc(/C=C/C(=O)O)cc1)C(=O)NC1CCCCC1 (stereo not drawn),9
15,CCCCCCC(NC(=O)c1ccc(/C=C/C(=O)O)cc1)C(=O)NCC(=O)O (stereo not drawn),7.5
16,CCCCC(NC(=O)c1ccc(/C=C/C(=O)O)cc1)C(=O)NCc1ccccc1 (stereo not drawn),6.3
17,CC(NC(=O)c1ccc(/C=C/C(=O)O)cc1)C(=O)NCc1ccccc1 (stereo not drawn),7.2
18,CCC(NC(=O)c1ccc(/C=C/C(=O)O)cc1)C(=O)NCc1ccccc1 (stereo not drawn),15
